These results are taken from ChEMBL document CHEMBL4251600, “Bioactive products from singlet oxygen photooxygenation of cannabinoids” (Eur J Med Chem, 2018).

SMILES strings stand for the structures. pIC50, pKi: −log10 of the molar value. Converted amounts (≈) assume the structure as drawn. The source made the active and inactive calls. The rule behind the calls is not given here. Where only a bound is given, the exact number is not on record here.

Assay [1] relates to SK-MEL. The assay can be described thus: Anticancer activity against human SK-MEL cells assessed as cell growth inhibition up to 10 ug/ml incubated for 48 hrs by neutral red dye based assay. It is filed as functional.
Assay [2] concerns LLC-PK1. As to the kind of experiment: Cytotoxicity against pig LLC-PK1 cells assessed as cell growth inhibition incubated for 48 hrs by neutral red dye based assay. Further details: species or system Sus scrofa.
For assay [3], the system named is Leishmania donovani. The assay can be described thus: Antileishmanial activity against Leishmania donovani promastigotes incubated for 48 hrs by alamar blue assay. The format is functional, organism-based. In general terms: Resazurin is reduced to fluorescent resorufin, in cell work by metabolically active cells.
In assay [4] the test system is Staphylococcus aureus. As to the kind of experiment: Antimicrobial activity against methicillin-resistant Staphylococcus aureus by modified CLSI based method. It is filed as functional, organism-based.
Assay [5] concerns Pichia kudriavzevii. As to the kind of experiment: Antifungal activity against Candida krusei by modified CLSI based method. It is filed as functional, organism-based.
Assay [6] concerns Cryptococcus neoformans. The assay can be described thus: Antifungal activity against Cryptococcus neoformans by alamar blue assay. It is filed as functional, organism-based.
For assay [7], the system named is Staphylococcus aureus. As to the kind of experiment: Antimicrobial activity against Staphylococcus aureus by modified CLSI based method. The format is functional, organism-based.
The test system of assay [8] is SK-OV-3. The assay can be described thus: Anticancer activity against human SKOV3 cells assessed as cell growth inhibition up to 10 ug/ml incubated for 48 hrs by neutral red dye based assay. It is filed as functional.
The subject of assay [9] is KB. As to the kind of experiment: Anticancer activity against human KB cells assessed as cell growth inhibition up to 10 ug/ml incubated for 48 hrs by neutral red dye based assay. The format is functional.
The subject of assay [10] is BT-549. As to the kind of experiment: Anticancer activity against human BT549 cells assessed as cell growth inhibition incubated for 48 hrs by neutral red dye based assay. The following applies: BT-549, 48 h. It is filed as functional.
For assay [11], the system named is Nakaseomyces glabratus. As to the kind of experiment: Antifungal activity against Candida glabrata by modified CLSI based method. The format is functional, organism-based.
In assay [12] the test system is SK-MEL. The assay can be described thus: Anticancer activity against human SK-MEL cells assessed as cell growth inhibition incubated for 48 hrs by neutral red dye based assay. It is filed as functional.
Assay [13] concerns KB. As to the kind of experiment: Anticancer activity against human KB cells assessed as cell growth inhibition incubated for 48 hrs by neutral red dye based assay. The format is functional.
The target in assay [14] is Cannabinoid receptor 2 (Homo sapiens, UniProt P34972). The assay can be described thus: Displacement of [3H]CP-55,940 from recombinant human full length CB2 receptor expressed in HEK293 cell membranes after 90 mins by topcount method. Background: Loss of bound radioactivity is the signal in a displacement assay; it reports binding, not function.
Cannabinoid receptor 2, sequence (P34972 whole entry): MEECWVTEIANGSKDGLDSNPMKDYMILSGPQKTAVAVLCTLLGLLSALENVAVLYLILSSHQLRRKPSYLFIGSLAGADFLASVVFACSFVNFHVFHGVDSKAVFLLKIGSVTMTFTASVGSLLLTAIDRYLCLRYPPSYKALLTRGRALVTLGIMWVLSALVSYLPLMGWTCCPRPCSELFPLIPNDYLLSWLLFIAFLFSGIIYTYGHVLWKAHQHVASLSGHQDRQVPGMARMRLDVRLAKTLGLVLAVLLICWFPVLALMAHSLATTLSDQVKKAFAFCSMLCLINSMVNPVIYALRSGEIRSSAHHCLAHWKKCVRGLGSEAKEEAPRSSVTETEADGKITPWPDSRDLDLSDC
Assay [15] deals with Plasmodium falciparum. The assay can be described thus: Antiplasmodial activity against chloroquine-sensitive Plasmodium falciparum D6 infected in red blood cells incubated for 72 hrs by parasite LDH release based colorimetric assay. The following applies: D6, 72 h. The format is functional, organism-based. Background: Release of lactate dehydrogenase indicates damage to the cell membrane.

For assay [16], the system named is Plasmodium falciparum. The assay can be described thus: Antiplasmodial activity against chloroquine-resistant Plasmodium falciparum W2 infected in red blood cells incubated for 72 hrs by parasite LDH release based colorimetric assay. It is filed as functional, organism-based. The following applies: W2, 72 h.
Assay [17] deals with Vero. As to the kind of experiment: Cytotoxicity against African green monkey Vero cells assessed as cell growth inhibition incubated for 48 hrs by neutral red dye based assay. The following applies: Chlorocebus sabaeus.
The target in assay [18] is Cannabinoid receptor 1 (Homo sapiens, UniProt P21554). The assay can be described thus: Displacement of [3H]CP-55,940 from recombinant human full length CB1 receptor expressed in HEK293 cell membranes after 90 mins by topcount method.
Cannabinoid receptor 1, sequence (P21554 whole entry): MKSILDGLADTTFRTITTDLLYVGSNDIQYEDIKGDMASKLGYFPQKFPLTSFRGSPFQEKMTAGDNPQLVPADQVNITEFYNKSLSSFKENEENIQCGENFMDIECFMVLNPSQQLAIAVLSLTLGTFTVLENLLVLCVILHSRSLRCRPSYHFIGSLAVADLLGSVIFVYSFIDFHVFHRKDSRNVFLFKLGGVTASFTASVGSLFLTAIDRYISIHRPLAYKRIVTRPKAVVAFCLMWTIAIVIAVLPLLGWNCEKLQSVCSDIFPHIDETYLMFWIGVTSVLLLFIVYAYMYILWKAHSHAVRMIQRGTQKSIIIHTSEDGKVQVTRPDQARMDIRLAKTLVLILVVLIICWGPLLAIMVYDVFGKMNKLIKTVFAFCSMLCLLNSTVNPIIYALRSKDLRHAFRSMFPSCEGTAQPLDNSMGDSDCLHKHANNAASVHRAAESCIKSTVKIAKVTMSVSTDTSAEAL
Assay [19] deals with SK-OV-3. As to the kind of experiment: Anticancer activity against human SKOV3 cells assessed as cell growth inhibition incubated for 48 hrs by neutral red dye based assay. The format is functional. The following applies: SK-OV-3, 48 h.
Assay [20] deals with BT-549. The assay can be described thus: Anticancer activity against human BT549 cells assessed as cell growth inhibition up to 10 ug/ml incubated for 48 hrs by neutral red dye based assay. It is filed as functional.
[21] abbreviates: Sus scrofa, LLC-PK1, 48 h, read-out: IC50.
[22] abbreviates: Cryptococcus neoformans, read-out: IC50.
Where [23] appears, read: Cryptococcus neoformans, read-out: MIC.
The mark [24] stands for this setting: Staphylococcus aureus, read-out: IC50.
The mark [25] stands for this setting: Leishmania donovani, 48 h, read-out: IC50.
Setting [26] is: Leishmania donovani, 48 h, read-out: IC90.
The mark [27] stands for this setting: Staphylococcus aureus, read-out: MIC.

For the compound `C=C1C[C@H]2C3=C(OC(C)(C)[C@@H]2CC1OO)C(=O)C(CCCCC)=CC3=O` (stereo in doubt; 26), the IC50 entry is “Not Active” in assay [1]; 9.95 µg/mL (≈ 27.6 µM) in assay [2] (setting [21]); 3.1 µg/mL (≈ 8.6 µM) in [3]; 15.3 µg/mL (≈ 42.4 µM) in assay [4]; 20 µg/mL (≈ 55.5 µM) in assay [5]; 2.05 µg/mL (≈ 5.69 µM) in assay [6]. The compound further returned an IC50 in [7] of 2.41 µg/mL (≈ 6.69 µM). The compound also gave an IC90 in assay [3] of 8 µg/mL (≈ 22.2 µM). Besides, the minimum inhibitory concentration (MIC) in assay [6] and in assay [7] was 5 µg/mL (≈ 13.9 µM) in each case.

As for `CCCCCC1=CC(=O)C2=C(OC(C)(C)c3ccc(C)cc32)C1=O`, the IC50 in [2] (setting [21]) is 5.65 µg/mL (≈ 17.4 µM); in assay [8], “Not Active”; in assay [9] it was “Not Active”; in [10] it was 6.05 µg/mL (≈ 18.6 µM); in assay [4] it was “Not Active”; in assay [11], “Not Active”. The IC50 entry in assay [5] is “Not Active”; in assay [6] (setting [22]), 4.44 µg/mL (≈ 13.7 µM); in assay [7] (setting [24]), more than 20 µg/mL; in assay [12] it was 7.6 µg/mL (≈ 23.4 µM). Moreover, the MIC entry in assay [4], in assay [11], in assay [5] and in assay [7] was “inactive” throughout. For the same compound, in [6] (setting [23]), the MIC amounted to 20 µg/mL (≈ 61.6 µM).

As for `CCCCCC1=CC(=O)C2=C(OC(C)(C)[C@@H]3CC[C@](C)(OCC)C=C23)C1=O`, the IC50 in assay [13] was 5.25 µg/mL (≈ 14.1 µM); in assay [2] (setting [21]), 2.25 µg/mL (≈ 6.04 µM); in assay [3] (setting [25]), 0.06 µg/mL (≈ 0.161 µM); in assay [10], 4.2 µg/mL (≈ 11.3 µM); in assay [4] (setting [24]) it was 1.36 µg/mL (≈ 3.65 µM); in assay [11], “Not Active”. Also, the IC50 in assay [15] is 0.16 µg/mL (≈ 0.43 µM); in assay [5] it was “Not Active”; in assay [16], 0.2 µg/mL (≈ 0.537 µM); in assay [6] (setting [22]), 0.7 µg/mL (≈ 1.88 µM); in assay [17], 4.1 µg/mL (≈ 11 µM); in assay [7] (setting [24]) it was 1.35 µg/mL (≈ 3.62 µM). Also, in assay [19], the IC50 stood at 4.35 µg/mL (≈ 11.7 µM). Besides, the values for the pIC50 in assay [14] and in assay [18] were 5.39 and 5.74, respectively. Besides, the pKi in [14] is 5.69; in assay [18] it was 6.04. Further, the IC90 in assay [3] (setting [26]) was 0.13 µg/mL (≈ 0.349 µM). The MIC in assay [4] (Staphylococcus aureus), in assay [6] (setting [23]) and in [7] (setting [27]) was 2.5 µg/mL (≈ 6.71 µM) each time. Besides, the MIC entry in assay [11] and in assay [5] was “inactive” in each case.

With `C=C1C[C@H]2C3=C(OC(C)(C)[C@@H]2CC1OO)C(=O)C(CCCCC)=CC3=O` (stereo in doubt; 25), the IC50 in [2] (llc-pk1) is 9.9 µg/mL (≈ 27.5 µM); in assay [8] it was “Not Active”; in [20], “Not Active”; in assay [3] (setting [25]), 2.1 µg/mL (≈ 5.83 µM); in assay [9], “Not Active”; in assay [4], 5.78 µg/mL (≈ 16 µM). Moreover, the IC50 entry in [11] was “Not Active”; in assay [15], 1 µg/mL (≈ 2.77 µM); in assay [5] (Pichia kudriavzevii, read-out: IC50), 17 µg/mL (≈ 47.2 µM); in [16], 0.9 µg/mL (≈ 2.5 µM); in assay [6] (setting [22]), 1.4 µg/mL (≈ 3.88 µM); in assay [7], 0.91 µg/mL (≈ 2.52 µM). For the same compound, the IC50 in [12] was 8.65 µg/mL (≈ 24 µM). Further, in [3] (setting [26]), the IC90 was 11 µg/mL (≈ 30.5 µM). The figures for the MIC in assay [4] (Staphylococcus aureus), in [6] (setting [23]) and in assay [7] (setting [27]) were 10 µg/mL (≈ 27.7 µM), 2.5 µg/mL (≈ 6.94 µM) and 2.5 µg/mL (≈ 6.94 µM), respectively.

As a reminder, the IC50 is the point on the concentration scale where inhibition reaches its midpoint. Broadly, the IC90 is the concentration needed for an effect of 90%. The term MIC denotes the least concentration at which growth counts as inhibited. What is called pIC50 is the negative decadic logarithm of the IC50, by convention in mol/L. As usually defined, the pKi is the Ki on a negative log10 scale, so that one unit is a factor of ten.
